The record followed here is US20110039763A1, “TARGETED ANTIMICROBIAL MOIETIES” (C3 JIAN, INC., priority 2009, published 2011).

Assay [1] relates to microorganisms. Put plainly: Peptide activities: targeting/binding, antimicrobial, growth or phenotype altering (Tables 7, 8). The settings on record: peptides having multiple activities. In kind it is cell-based.
In assay [2] the test system is microorganisms. Put plainly: Targeting peptide binding to target microorganisms (Tables 3, 10, 12). The settings on record: microorganism(s) the targeting peptide binds; binding in aqueous buffers varied with peptide solubility, preferably 1x PBS.
Assay [3] relates to microorganisms. The experiment in a line: Morphology, biofilm and growth disrupting peptides (Table 5). In kind it is cell-based. More on the design: key: A: Peptide aggregates; B: Less hyphal formation; Clumps; Diffuse clumps and small polyps; F: Diffuse growth; H: Thin; I: Growth inhibition; Microcolony formation; Rippled; Small polyps; Thick; W: Halo formation on top, microlonies on bottom. The source says:
In certain embodiments peptides that induce alterations in phenotype or other biological activities can also be used as antimicrobial effector moieties.

Entries after “also recorded” stand apart in the source; their conditions may differ.

Consider “PF-360: peptide having multiple activities (chain 1 MEQKVKVIFVPRSKPDNQLKTFVSAVLFKA; chain 2 MEQKVKVIFVPRSKPDNQLKTFVSAVLFKA; Peptide with targeting and/or antimicrobial activity)”, for which the Activities entry in the assay with microorganisms [1] is recorded as “G B”. In the assay with microorganisms [2], the “Target(s)” value was “S. epidermidis; also recorded: B. subtilis; also recorded: E. coli; also recorded: P. aeruginosa; also recorded: C. albicans; also recorded: E. faecalis; also recorded: C. jeikeium; also recorded: C. jejuni”. In addition, in the assay with microorganisms [3], the “Organism, effect: E. coli” value was “E. coli (C)”; the “Organism, effect: MRSA” value was “MRSA (H)”; the “Organism, effect: S. epidermidis” value was “S. epidermidis (S)”.

On to “PF-362: peptide having multiple activities (chain 1 NIERILKEKVWMIRCVE; chain 2 NIERILKEKVWMIRCVE; Peptide with targeting and/or antimicrobial activity)”, for which the Activities entry with microorganisms [1] is listed as “G B”. Moreover, the “Target(s)” value with microorganisms [2] is given as “S. epidermidis; also recorded: E. coli; also recorded: P. aeruginosa; also recorded: C. albicans; also recorded: E. faecalis; also recorded: C. jejuni”. For the same substance, in the assay with microorganisms [3], the “Organism, effect: E. coli” value is “E. coli (C)” and the “Organism, effect: MRSA” value is recorded as “MRSA (C)”.

In the case of “PF-363: peptide having multiple activities (chain 1 SMLSVTVMCLMHASVAANQAMEKKV; chain 2 SMLSVTVMCLMHASVAANQAMEKKV; Peptide with targeting and/or antimicrobial activity)”, the Activities entry with microorganisms [1] is “G B”. For the same substance, the “Target(s)” value in the assay on microorganisms [2] is “B. subtilis; also recorded: E. coli; also recorded: P. aeruginosa; also recorded: C. albicans; also recorded: S. pneumoniae; also recorded: E. faecalis”. Further, in the assay with microorganisms [3], the “Organism, effect: C. jejuni” value was “C. jejuni (D)”; the “Organism, effect: E. coli” value is “E. coli (C)”; the “Organism, effect: E. faecalis” value is listed as “E. faecalis (D)”; the “Organism, effect: MRSA” value is “MRSA (H)”. Besides, in the assay on microorganisms [3], the “Organism, effect: S. epidermidis” value is “S. epidermidis (S)” and the “Organism, effect: S. pneumoniae” value is reported as “S. pneumoniae (R)”.

Consider “PF-370: peptide having multiple activities (chain 1 VIFLHKESGNLKEIFY; chain 2 VIFLHKESGNLKEIFY; Peptide with targeting and/or antimicrobial activity)”, for which the Activities entry in the assay on microorganisms [1] was “G B”. The “Target(s)” value with microorganisms [2] is listed as “S. epidermidis; also recorded: E. coli; also recorded: P. aeruginosa; also recorded: E. faecalis; also recorded: C. jejuni”. Moreover, in the assay with microorganisms [3], the “Organism, effect: E. coli” value is “E. coli (R)”; the “Organism, effect: MRSA” value is listed as “MRSA (C)”; the “Organism, effect: S. epidermidis” value is given as “S. epidermidis (C)”.

Turning to “PF-373: peptide having multiple activities (chain 1 HFYLLFER; chain 2 HFYLLFER; Peptide with targeting and/or antimicrobial activity)”, in the assay on microorganisms [1], the Activities entry is “G B”. Also, the “Target(s)” value in the assay on microorganisms [2] was “S. epidermidis and E. coli and P. aeruginosa and C. albicans and MRSA and E. faecalis and C. jejuni”. In the assay on microorganisms [3], the “Organism, effect: MRSA” value is “MRSA (M)” and the “Organism, effect: S. epidermidis” value is listed as “S. epidermidis (M)”.

Consider “PF-378: peptide having multiple activities (chain 1 ESAKSNLNFLMQEEWALFLLL; chain 2 ESAKSNLNFLMQEEWALFLLL; Peptide with targeting and/or antimicrobial activity)”, for which the Activities result with microorganisms [1] is “G B”. Further, the “Target(s)” value in the assay on microorganisms [2] is given as “B. subtilis; also recorded: B. fragilis; also recorded: E. coli; also recorded: P. aeruginosa; also recorded: C. jeikeium”. In the assay with microorganisms [3], the “Organism, effect: MRSA” value is on record as “MRSA (M)” and the “Organism, effect: S. epidermidis” value is on record as “S. epidermidis (M)”.

As to “PF-381: peptide having multiple activities (chain 1 QGANPCQQVGFTVNDPDCRLAKTV; chain 2 QGANPCQQVGFTVNDPDCRLAKTV; Peptide with targeting and/or antimicrobial activity)”, the Activities result in the assay on microorganisms [1] is reported as “G B”. Besides, in the assay on microorganisms [2], the “Target(s)” value was “E. coli; also recorded: P. aeruginosa; also recorded: C. jejuni”. For the same substance, in the assay on microorganisms [3], the “Organism, effect: E. coli” value is recorded as “E. coli (R)”; the “Organism, effect: E. faecalis” value is “E. faecalis (C)”; the “Organism, effect: MRSA” value is reported as “MRSA (C)”; the “Organism, effect: S. epidermidis” value is listed as “S. epidermidis (C)”.

Take “PF-382: peptide having multiple activities (chain 1 KYKCSWCKRVYTLRKDHKTAR; chain 2 KYKCSWCKRVYTLRKDHKTAR; Peptide with targeting and/or antimicrobial activity)”: the Activities result in the assay on microorganisms [1] is given as “G B”. Besides, the “Target(s)” value in the assay with microorganisms [2] was “S. epidermidis; also recorded: B. subtilis; also recorded: B. fragilis; also recorded: E. coli; also recorded: P. aeruginosa; also recorded: E. faecalis; also recorded: C. jeikeium; also recorded: C. jejuni”. Also, the “Organism, effect: MRSA” value in the assay on microorganisms [3] was “MRSA (M)”.

Turning to “PF-383: peptide having multiple activities (chain 1 WSEIEINTKQSN; chain 2 WSEIEINTKQSN; Peptide with targeting and/or antimicrobial activity)”, in the assay on microorganisms [1], the Activities entry was “G B”. The “Target(s)” value in the assay with microorganisms [2] is “S. epidermidis; also recorded: B. subtilis; also recorded: B. fragilis; also recorded: E. coli; also recorded: C. jejuni”. Further, in the assay on microorganisms [3], the “Organism, effect: E. coli” value was “E. coli (R)” and the “Organism, effect: S. epidermidis” value is “S. epidermidis (C)”.

For “PF-385: peptide having multiple activities (chain 1 MIKKSILKIKYYVPVLISLTLILSA; chain 2 MIKKSILKIKYYVPVLISLTLILSA; Peptide with targeting and/or antimicrobial activity)”, the Activities entry with microorganisms [1] is “G B”. Besides, the “Target(s)” value in the assay with microorganisms [2] is “S. epidermidis; also recorded: E. coli; also recorded: P. aeruginosa; also recorded: C. albicans; also recorded: E. faecalis”. In addition, the “Organism, effect: E. coli” value in the assay with microorganisms [3] is “E. coli (A)”.

On to “PF-390: peptide having multiple activities (chain 1 VVAYVITQVGAIRF; chain 2 VVAYVITQVGAIRF; Peptide with targeting and/or antimicrobial activity)”, for which, in the assay on microorganisms [1], the Activities entry is “G B”. The “Target(s)” value in the assay with microorganisms [2] is “S. epidermidis and P. aeruginosa and C. albicans and MRSA”. Moreover, in the assay on microorganisms [3], the “Organism, effect: C. jejuni” value is reported as “C. jejuni (D)”; the “Organism, effect: E. coli” value is on record as “E. coli (C)”; the “Organism, effect: E. faecalis” value was “E. faecalis (D)”; the “Organism, effect: MRSA” value is given as “MRSA (D)”. Besides, in the assay with microorganisms [3], the “Organism, effect: S. epidermidis” value is given as “S. epidermidis (D)” and the “Organism, effect: S. pneumoniae” value is on record as “S. pneumoniae (D)”.

As for “PF-392: peptide having multiple activities (chain 1 DPAGCNDIVRKYCK; chain 2 DPAGCNDIVRKYCK; Peptide with targeting and/or antimicrobial activity)”, the Activities result in the assay on microorganisms [1] is given as “G B”. The “Target(s)” value with microorganisms [2] is listed as “S. epidermidis; also recorded: B. subtilis; also recorded: S. pneumoniae; also recorded: C. jeikeium; also recorded: C. jejuni”. In the assay on microorganisms [3], the “Organism, effect: C. jejuni” value is “C. jejuni (A)”; the “Organism, effect: E. faecalis” value is listed as “E. faecalis (A)”; the “Organism, effect: MRSA” value is on record as “MRSA (S)”.
